Data set [1] addresses human BACE1 (Homo sapiens, UniProt P56817). Briefly: Fluorescent kinetic assay, BACE-1 (Example 114). Type of data set: biochemical. As to the method: Evaluation of BACE-1 Binding Affinity of Test Compounds
Fluorescent Kinetic Assays
Dilution and mixing steps: total reaction volume: 100 μL
100 μM substrate dilution in 1×PBS was prepared, and
Fluorescence Readings: Readings at λex 320 nm and εem 420 nm are taken every 40 sec for 30 min at room temperature and the linear slope for substrate cleavage rate (vi) determined.

Setting [2] is: 10 nM human BACE1, 25 μM substrate WABC-6, 50 mM Na-Acetate pH 4.5, room temperature, read-out: BACE-1 (IC50 μM).

Structures are written as SMILES. Like-named read-outs stand apart in the source and are kept apart here.

Sequence of human BACE1 (P56817 46-501): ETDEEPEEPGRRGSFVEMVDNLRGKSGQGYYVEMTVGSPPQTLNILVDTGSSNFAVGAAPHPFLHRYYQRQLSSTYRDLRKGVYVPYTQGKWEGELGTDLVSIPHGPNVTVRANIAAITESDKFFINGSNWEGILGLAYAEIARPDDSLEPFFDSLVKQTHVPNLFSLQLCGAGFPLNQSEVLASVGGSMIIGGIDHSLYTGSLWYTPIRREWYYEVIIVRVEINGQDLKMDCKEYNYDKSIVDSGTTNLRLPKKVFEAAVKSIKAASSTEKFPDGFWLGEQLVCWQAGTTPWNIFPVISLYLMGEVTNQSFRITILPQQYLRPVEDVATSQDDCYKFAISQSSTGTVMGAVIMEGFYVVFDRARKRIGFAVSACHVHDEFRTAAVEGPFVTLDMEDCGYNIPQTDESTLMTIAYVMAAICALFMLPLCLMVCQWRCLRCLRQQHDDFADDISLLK

For orientation: melting point means the temperature, or range, at which the solid turns liquid. In general, IC50 refers to the concentration that gives 50% inhibition. Take `CN1C(=O)C(c2ccncc2)(c2cccc(-c3cc(F)cnc3Cl)c2)N=C1N` (stereo not shown) [Example 42]: the melting point was 120 to 122 °C. For the same compound, in data set [1], the IC50 was 0.11 to 1 µM.

On to `CCc1cc(C2(c3cccc(-c4cccnc4)c3)N=C(N)N(C)C2=O)ccn1` (stereo not shown) [Example 63], for which the melting point lay within 217 to 219 °C. The IC50 in data set [1] was 0.01 to 0.1 µM.

Compound `CN1C(=O)C(c2cccc(-c3cccnc3)c2)(c2ccnc(Cl)c2)N=C1N` (stereo not shown) [Example 89] returned a melting point of 223 to 225 °C. For the same compound, the IC50 in data set [1] (setting [2]) fell in the range of 0.01 to 0.1 µM.

`CN1C(=O)C(c2ccccc2)(c2cccnc2)N=C1N` (stereo not shown) [Example 28] yielded a melting point of 205 to 206 °C. Moreover, the IC50 in data set [1] (setting [2]) was > 1 µM.

With `CCc1cc(C2(c3cccc(-c4cnccn4)c3)N=C(N)N(C)C2=O)ccn1` (stereo not shown) [Example 67], the melting point is 138 to 140 °C. This compound also gave an IC50 in data set [1] of 0.01 to 0.1 µM.

On to `CN1C(=O)C(c2ccncc2)(c2cccc(-c3cc(C#N)ccc3F)c2)N=C1N` (stereo not shown) [Example 41], for which the melting point was 213 to 215 °C. Also, the IC50 in data set [1] lay in the range of 0.01 to 0.1 µM.

`CCc1cc(C2(c3cccc(-c4cnccn4)c3)N=C(N)N(C)C2=O)cc(C)n1` (stereo not shown) [Example 86] yielded a melting point of 130 to 134 °C. Moreover, the IC50 in data set [1] (setting [2]) was 0.11 to 1 µM.

`CCc1cc(C2(c3ccc(F)c(-c4cncc(F)c4)c3)N=C(N)N(C)C2=O)cc(CC)n1` (stereo not shown) [Example 104, 2-Amino-5-(2,6-diethyl-pyridin-4-yl)-5-[4-fluoro-3-(5-fluoropyridin-3-yl)-phenyl]-3-methyl-3,5-dihydro-imidazol-4-one] yielded a melting point of 155 to 157 °C. For the same compound, the IC50 in data set [1] (setting [2]) fell in the range of 0.01 to 0.1 µM.

For the compound `CCc1cc(C2(c3cccc(OCC4CC4)c3)N=C(N)N(C)C2=O)cc(CC)n1` (stereo not shown) [Example 72], the melting point lay in the range of 68 to 70 °C. In data set [1], this compound yielded an IC50 of 0.11 to 1 µM.

Regarding `COc1ccc(F)cc1-c1cccc(C2(c3ccncc3)N=C(N)N(C)C2=O)c1` (stereo not shown) [Example 39], the melting point was in the range of 233 to 235 °C. Besides, the IC50 in data set [1] was 0.01 to 0.1 µM.

`CN1C(=O)C(c2ccncc2)(c2cccc(-c3ccc(C#N)s3)c2)N=C1N` (stereo not shown) [Example 50] came in with a melting point of 220 to 222 °C. Besides, the IC50 in data set [1] fell in the range of 0.11 to 1 µM.

`COc1ncccc1-c1cccc(C2(c3ccncc3)N=C(N)N(C)C2=O)c1` (stereo not shown) [Example 49] returned a melting point of 243 to 245 °C. Moreover, the IC50 in data set [1] was in the range of 0.11 to 1 µM.

`CN1C(=O)C(c2cccc(-c3cccnc3F)c2)(c2ccncc2F)N=C1N` (stereo not shown) [Example 58]: the melting point fell in the range of 237 to 238 °C. In data set [1], this compound came in with an IC50 of 0.01 to 0.1 µM.

For `CN1C(=O)C(c2cccnc2)(c2cccc(-c3ccccc3)c2)N=C1N` (stereo not shown) [Example 27], the melting point was 212 to 214 °C. Also, in data set [1] (setting [2]), the IC50 is 0.11 to 1 µM.

The values are drawn from US7452885B2, “Amino-5-(6-membered)heteroarylimidazolone compounds and the use thereof for β-secretase modulation” (Wyeth, priority 2005, dated 2008).
